This passage reports EC50 results from ChEMBL document CHEMBL1135981, “Designing analogues of mini atrial natriuretic peptide based on structural analysis by NMR and restrained molecular dynamics” (J Med Chem, 2002).

pEC50: −log10 of the molar value.

The subject of the test is CHO. Nature of the test: Evaluated for Biological activity, 50% effective concentration determined by its ability to produce cGMP. The format is functional, cell-based. The settings on record: Cricetulus griseus.
By pEC50 is commonly meant −log10 of the EC50, conventionally taken in molar units. For `CC[C@H](C)[C@@H]1NC(=O)[C@H](CCCN=C(N)N)NC(=O)[C@H](CC(=O)O)NC(=O)[C@H](CCSC)NC(=O)[C@H](CCCN=C(N)N)NC(=O)[C@@H](C)NC(=O)[C@@H](C)NC(=O)[C@H](Cc2ccccc2)NC(=O)[C@H](Cc2c[nH]cn2)NC(=O)[C@@H](NC(=O)[C@@H](N)CCSC)CSSC[C@@H](C(=O)N[C@@H](Cc2ccc(O)cc2)C(=O)N[C@@H](CCCN=C(N)N)C(N)=O)NC(=O)[C@H](CO)NC1=O`, the pEC50 is 8.88. In turn, `CC[C@H](C)[C@@H]1NC(=O)[C@H](CCCN=C(N)N)NC(=O)[C@H](CC(=O)O)NC(=O)[C@H](CCSC)NC(=O)[C@H](CCCN=C(N)N)NC(=O)CNC(=O)[C@@H](C)NC(=O)[C@H](Cc2ccccc2)NC(=O)[C@H](Cc2c[nH]cn2)NC(=O)[C@@H](NC(=O)[C@@H](N)CCSC)CSSC[C@@H](C(=O)N[C@@H](Cc2ccc(O)cc2)C(=O)N[C@@H](CCCN=C(N)N)C(N)=O)NC(=O)[C@H](CO)NC1=O` gave a pEC50 of 9.75. Regarding `CC[C@H](C)[C@@H]1NC(=O)[C@H](CCCN=C(N)N)NC(=O)[C@H](CC(=O)O)NC(=O)[C@H](CCSC)NC(=O)[C@H](CCCN=C(N)N)NC(=O)[C@@H](C)NC(=O)CNC(=O)[C@H](Cc2ccccc2)NC(=O)[C@H](Cc2c[nH]cn2)NC(=O)[C@@H](NC(=O)[C@@H](N)CCSC)CSSC[C@@H](C(=O)N[C@@H](Cc2ccc(O)cc2)C(=O)N[C@@H](CCCN=C(N)N)C(N)=O)NC(=O)[C@H](CO)NC1=O`, the pEC50 is 8.42.
